These results are taken from ChEMBL document CHEMBL2417425, “Design and synthesis of positional isomers of 5 and 6-bromo-1-[(phenyl)sulfonyl]-2-[(4-nitrophenoxy)methyl]-1H-benzimidazoles as possible antimicrobial and antitubercular agents” (2013).

What all share (format): functional
The test system of experiment [1] is Mycobacterium tuberculosis. The experiment is described as follows: Antimycobacterial activity against Mycobacterium tuberculosis H37Rv assessed as growth inhibition at 1 to 100 ug/mL by resazurin assay. Conditions: for MIC: Mycobacterium tuberculosis, H37Rv. (Alamar Blue is a resazurin reagent that responds to reducing activity.)
In experiment [2] the test system is Escherichia coli. In words: Antibacterial activity against Escherichia coli assessed as growth inhibition by serial dilution method.
Experiment [3] has as its system Mycobacterium tuberculosis. The experiment is described as follows: Antimycobacterial activity against Mycobacterium tuberculosis H37Rv assessed as growth inhibition at 0.3125 to 5 ug/mL by resazurin assay.
In experiment [4] the test system is Klebsiella pneumoniae. In words: Potency index, ratio of ciprofloxacin MIC to compound MIC for Klebsiella pneumoniae.
The test system of experiment [5] is Mycolicibacterium fortuitum. The experiment is described as follows: Antimycobacterial activity against Mycobacterium fortuitum ATCC 19542 assessed as growth inhibition at 0.3125 to 5 ug/mL by resazurin assay.
For experiment [6], the system named is Mycolicibacterium smegmatis. The experiment is described as follows: Antimycobacterial activity against Mycobacterium smegmatis ATCC 19420 assessed as growth inhibition at 0.3125 to 5 ug/mL by resazurin assay.
The subject of experiment [7] is Mycolicibacterium fortuitum. In words: Antimycobacterial activity against Mycobacterium fortuitum ATCC 19542 assessed as growth inhibition at 1 to 100 ug/mL by resazurin assay.
Experiment [8] deals with Candida albicans. In words: Antifungal activity against Candida albicans assessed as growth inhibition by serial dilution method.
The test system of experiment [9] is Staphylococcus aureus. The experiment is described as follows: Potency index, ratio of ciprofloxacin MIC to compound MIC for Staphylococcus aureus.
Experiment [10] deals with Aspergillus flavus. In words: Antifungal activity against Aspergillus flavus assessed as growth inhibition by serial dilution method.
The subject of experiment [11] is Mycolicibacterium smegmatis. In words: Antimycobacterial activity against Mycobacterium smegmatis ATCC 19420 assessed as growth inhibition at 1 to 100 ug/mL by resazurin assay.
Experiment [12] relates to Klebsiella pneumoniae. In words: Antibacterial activity against Klebsiella pneumoniae assessed as growth inhibition by serial dilution method.
For experiment [13], the system named is Rhizopus. The experiment is described as follows: Antifungal activity against Rhizopus sp. assessed as growth inhibition by serial dilution method.
The test system of experiment [14] is Staphylococcus aureus. In words: Antibacterial activity against Staphylococcus aureus assessed as growth inhibition by serial dilution method.

Molecules are shown by their SMILES. Values after ≈ are worked out from the molar mass of the structure shown. Where only a bound is given, the exact number is not on record here.

`O=[N+]([O-])c1ccc(OCc2nc3cc(Br)ccc3n2S(=O)(=O)c2cc(F)ccc2F)cc1`: the “growth inhibition (GI)” value in experiment [1] came to 95%. Further, the MIC in experiment [1] was 1 µg/mL (≈ 1.91 µM); in [2] it was 32 µg/mL (≈ 61 µM); in [3] it was 0.625 µg/mL (≈ 1.19 µM); in [5], 10 µg/mL (≈ 19.1 µM); in [6] it was 10 µg/mL (≈ 19.1 µM); in experiment [7], 10 µg/mL (≈ 19.1 µM). The minimum inhibitory concentration (MIC) turned out to be 16 µg/mL (≈ 30.5 µM) in experiment [8]; 8 µg/mL (≈ 15.3 µM) in experiment [10]; 10 µg/mL (≈ 19.1 µM) in experiment [11]; 4 µg/mL (≈ 7.63 µM) in experiment [12]; 16 µg/mL (≈ 30.5 µM) in [13]; 4 µg/mL (≈ 7.63 µM) in experiment [14]. The PI in experiment [4] is reported as 2; in [9], 1.

With `O=[N+]([O-])c1ccc(OCc2nc3ccc(Br)cc3n2S(=O)(=O)c2cc(F)ccc2F)cc1`, in experiment [1], the “growth inhibition (GI)” value was less than 90%. Also, the MIC in experiment [1] worked out at 10 µg/mL (≈ 19.1 µM); in [2], 64 µg/mL (≈ 122 µM); in experiment [3], 2.5 µg/mL (≈ 4.77 µM); in experiment [5], 10 µg/mL (≈ 19.1 µM); in [6], 10 µg/mL (≈ 19.1 µM); in experiment [7], 10 µg/mL (≈ 19.1 µM). Further, the minimum inhibitory concentration (MIC) is 128 µg/mL (≈ 244 µM) in [8]; 64 µg/mL (≈ 122 µM) in experiment [10]; 10 µg/mL (≈ 19.1 µM) in [11]; greater than 256 µg/mL in [12]; 256 µg/mL (≈ 488 µM) in [13]; 128 µg/mL (≈ 244 µM) in [14].

For the compound `O=[N+]([O-])c1ccc(OCc2nc3cc(Br)ccc3n2S(=O)(=O)c2ccccc2Cl)cc1`, in experiment [1], the “growth inhibition (GI)” value worked out at 90%. Besides, the MIC in experiment [1] was 1 µg/mL (≈ 1.91 µM); in [2] it was 4 µg/mL (≈ 7.65 µM); in experiment [3], 0.625 µg/mL (≈ 1.2 µM); in [5], 10 µg/mL (≈ 19.1 µM); in [6], 1.25 µg/mL (≈ 2.39 µM); in experiment [7] it was 10 µg/mL (≈ 19.1 µM). Besides, the MIC in experiment [8] came out at 8 µg/mL (≈ 15.3 µM); in experiment [10] it was 32 µg/mL (≈ 61.2 µM); in [11] it was 1 µg/mL (≈ 1.91 µM); in [12], 8 µg/mL (≈ 15.3 µM); in [13], 16 µg/mL (≈ 30.6 µM); in [14], 16 µg/mL (≈ 30.6 µM). For the same compound, in experiment [4], the PI is reported as 1.

On to `Cc1c(F)cccc1S(=O)(=O)n1c(COc2ccc([N+](=O)[O-])cc2)nc2cc(Br)ccc21`, for which the “growth inhibition (GI)” value in [1] is on record as less than 90%. Further, the MIC in experiment [1] was greater than 100 µg/mL; in experiment [2], greater than 256 µg/mL; in experiment [3], 10 µg/mL (≈ 19.2 µM); in experiment [5], 10 µg/mL (≈ 19.2 µM); in experiment [6], 10 µg/mL (≈ 19.2 µM); in experiment [7] it was 10 µg/mL (≈ 19.2 µM). For the same compound, the MIC in [8] was 128 µg/mL (≈ 246 µM); in experiment [10] it was 256 µg/mL (≈ 492 µM); in [11] it was greater than 100 µg/mL; in experiment [12], 128 µg/mL (≈ 246 µM); in experiment [13], 256 µg/mL (≈ 492 µM); in experiment [14], 64 µg/mL (≈ 123 µM).

For `O=[N+]([O-])c1ccc(OCc2nc3cc(Br)ccc3n2S(=O)(=O)c2cc(Cl)ccc2Cl)cc1`, the “growth inhibition (GI)” value in experiment [1] came out at 90%. Moreover, the MIC in experiment [1] was greater than 100 µg/mL; in experiment [2], 4 µg/mL (≈ 7.18 µM); in experiment [3], 1.25 µg/mL (≈ 2.24 µM); in [5], 10 µg/mL (≈ 17.9 µM); in experiment [7], 10 µg/mL (≈ 17.9 µM); in experiment [8], 64 µg/mL (≈ 115 µM). Further, the MIC was found to be 32 µg/mL (≈ 57.4 µM) in experiment [10]; 10 µg/mL (≈ 17.9 µM) in experiment [11]; 8 µg/mL (≈ 14.4 µM) in [12]; 16 µg/mL (≈ 28.7 µM) in experiment [13]; 8 µg/mL (≈ 14.4 µM) in [14]. Also, the PI in experiment [4] amounted to 1.

Take `O=[N+]([O-])c1ccc(OCc2nc3cc(Br)ccc3n2S(=O)(=O)c2ccccc2[N+](=O)[O-])cc1`: the “growth inhibition (GI)” value in [1] is reported as 95%. Besides, the MIC in experiment [1] was determined as 1 µg/mL (≈ 1.88 µM); in [2], 32 µg/mL (≈ 60 µM); in [3] it was 0.625 µg/mL (≈ 1.17 µM); in experiment [5] it was 10 µg/mL (≈ 18.8 µM); in [6], 1.25 µg/mL (≈ 2.34 µM); in experiment [7], 10 µg/mL (≈ 18.8 µM). Further, the minimum inhibitory concentration (MIC) was found to be 16 µg/mL (≈ 30 µM) in experiment [8]; 8 µg/mL (≈ 15 µM) in experiment [10]; 1 µg/mL (≈ 1.88 µM) in experiment [11]; 4 µg/mL (≈ 7.5 µM) in experiment [12]; 16 µg/mL (≈ 30 µM) in experiment [13]; 4 µg/mL (≈ 7.5 µM) in experiment [14]. The PI worked out at 2 in experiment [4] and 1 in experiment [9].

Consider `O=[N+]([O-])c1ccc(OCc2nc3ccc(Br)cc3n2S(=O)(=O)c2ccccc2[N+](=O)[O-])cc1`, for which the “growth inhibition (GI)” value in [1] is on record as 90%. The MIC came out at 1 µg/mL (≈ 1.88 µM) in [1]; 128 µg/mL (≈ 240 µM) in experiment [2]; 1.25 µg/mL (≈ 2.34 µM) in experiment [3]; 1.25 µg/mL (≈ 2.34 µM) in [5]; 1.25 µg/mL (≈ 2.34 µM) in experiment [6]; 10 µg/mL (≈ 18.8 µM) in experiment [7]. Moreover, the MIC was greater than 256 µg/mL in experiment [8]; greater than 256 µg/mL in [10]; 1 µg/mL (≈ 1.88 µM) in experiment [11]; 256 µg/mL (≈ 480 µM) in [12]; 256 µg/mL (≈ 480 µM) in [13]; greater than 256 µg/mL in experiment [14].

Broadly, the MIC is the least concentration at which growth counts as inhibited.
